Laboratory results reported in patent US10858344B2, “Hydantoin containing deoxyuridine triphosphatase inhibitors” (CV6 Therapeutics (NI) Limited, priority 2016, dated 2020).

Biological target: recombinant human deoxyuridine nucleotidohydrolase (dUTPase) (Homo sapiens (Human), UniProt P33316)
Test: fluorescence-based dUTPase inhibition assay
Type: biochemical
Details: for % relative inhibition vs. positive control: mean over three concentrations, typically 100, 50 and 25 μmol/L, compared to in-run positive control
From the text: Recombinant human deoxyuridine nucleotidohydrolase (dUTPase) is expressed and purified as described in Ladner R D, Carr S A, Huddleston M J, McNulty D E, Caradonna S J. J Biol Chem. 1996 Mar. 29; 271(13):7752-7. All drugs stocks are aliquoted and diluted as appropriate prior to use. The oligonucelotide primer, templates and fluorophore- and quencher-labeled detection probes are synthesized by Integrated DNA Technologies (Coralville, Iowa), subjected to polyacrylamide gel electrophoresis purification and reconstituted in Omnipur sterile nuclease-free water (EMD Chemicals USA, Gibbstown N.J.) at a stock concentration of 100 μmol/L. The two non-emissive (dark) quenching molecules incorporated into the detection probes include the Iowa black fluorescein quencher (IBFQ; absorption max 531 nm) and ZEN (non-abbreviation; absorption max 532 nm). The fluorescent label utilized is 6-FAM (5′-carboxyfluorescein; excitation max.=494 nm, emission max.=520 nm). Probes are further diluted to a working stock of 10 μmol/L and aliquoted to avoid repeated freeze/thaw cycles. AmpliTaq Gold DNA Polymerase, GeneAmp 10×PCR Buffer 2, MgCl2 and MicroAmp Optical 96-well Reaction Plates are purchased from Applied Biosystems (Carlsbad, Calif.). dNTPs are purchased individually at stock concentrations of 100 mmol/L from New England Biolabs at HPLC-certified >99% purity (Ipswich, Mass.).
Reaction mixtures contained primer, probe and template at an equimolar final concentration of 0.4 μmol/L. Magnesium chloride (MgCl2) is included at a final concentration of 2 mmol/L. Non-limiting dNTPs are included in the reaction mix in excess at a final concentration of 100 μmol/L (dUTP/dTTP is excluded). AmpliTaq Gold DNA polymerase is added at 0.875 U/reaction, 2.5 μl of 10×PCR buffer 2 added and nuclease-free ddH2O added to a final reaction volume of 25 μl. For dUTP inhibition analysis, the volume of ddH2O is further modified to accommodate an additional 1 μl of dUTPase (10 ng/μl) and 1 μl of inhibitor or DMSO control. Thermal profiling and fluorescence detection is performed using a customized thermal program on board a Roche Lightcycler LC480 Instrument II. For analysis of dNTPs, the thermal profile consisted of an 8 min 37° C. step followed by a 10 min 95° C. step to ‘hot-start’ the Taq polymerase and a primer extension time of up to 30 min at 60° C. Raw fluorescence spectra for 6-FAM is measured at specified time intervals to follow assay progression on board a Roche LightCycler 480 Software Version 1.5 and exported and analyzed in Microsoft Excel (Microsoft, Redmond Wash.) and Prism (GraphPad Software, La Jolla Calif.). Fluorescence values for blank reactions (limiting dNTP omitted) are subtracted to give normalized fluorescence units (NFU) to account for background fluorescence.
Test compounds are screened in a fluorescence-based assay. The assay employs a DNA polymerase-based approach utilizing an oligonucleotide template with 3 distinct regions: a 3′ primer binding region, a mid-template dUTP/thymidine triphosphate (TTP) detection region and a 5′ 6-[…] (FAM)-labeled probe binding region that incorporates a black hole quenching moiety. During the reaction, the probe and primer hybridize to the oligonucleotide template to form the template:primer:probe complex. When Taq polymerase binds to the primer in the TPP complex and dUTP is present, successful extension of the nascent strand occurs and the inherent 5′ to 3′ exonuclease activity of Taq polymerase cleaves and displaces the 6-FAM-labeled probe in a 5′ to 3′ direction, releasing the 6-FAM fluorophore from its proximity to the three quenchers. This displacement effectively disrupts the Förster resonance energy transfer (FRET) and the resulting fluorescence detected upon excitation is directly proportional to the amount of the dUTP available in the assay for incorporation. […]

Chain of recombinant human deoxyuridine nucleotidohydrolase (dUTPase) (P33316 other isoform, or with tags, fused parts or gaps): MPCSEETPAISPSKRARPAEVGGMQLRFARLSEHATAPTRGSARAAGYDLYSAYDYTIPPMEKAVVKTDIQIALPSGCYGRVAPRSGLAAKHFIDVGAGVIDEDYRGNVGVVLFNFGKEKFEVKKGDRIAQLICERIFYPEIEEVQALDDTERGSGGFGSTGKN

| Structure (SMILES) | % relative inhibition vs. positive control | IC50 |
| --- | --- | --- |
| CC(C)COc1cc([C@@H](C)NS(=O)(=O)CCCCCN2C(=O)NC(=O)[C@H]2C)ccc1F [Compound 108b, N—((R)-1-(4-fluoro-3-isobutoxyphenyl)ethyl)-5-((R)-5-methyl-2,4-dioxoimidazolidin-1-yl)pentane-1-sulfonamide] | 94% |  |
| C[C@H](NS(=O)(=O)CCCCCN1CC(=O)NC1=O)c1ccc(F)c(OCCC2CC2)c1 [compound 128, (S)—N-(1-(3-(2-cyclopropylethoxy)-4-fluorophenyl)ethyl)-5-(2,4-dioxoimidazolidin-1-yl)pentane-1-sulfonamide] | 53% |  |
| CC(C)COc1cc(C2(NS(=O)(=O)CC/C=C/CN3C(=O)NC(=O)C3(C)C)CC2)ccc1F [118a, (E)-5-(5,5-dimethyl-2,4-dioxoimidazolidin-1-yl)-N-(1-(4-fluoro-3-isobutoxyphenyl)cyclopropyl)pent-3-ene-1-sulfonamide] | 19% |  |
| C[C@@H](NS(=O)(=O)CCCCCN1CC(=O)NC1=O)c1cccc(OC2CCCC2)c1 [Example 89, (R)—N-(1-(3-(cyclopentyloxy)phenyl)ethyl)-5-(2,4-dioxoimidazolidin-1-yl)pentane-1-sulfonamide] | 93% | 800 nM |
| C[C@H]1C(=O)NC(=O)N1C/C=C/CCS(=O)(=O)NC1(c2cccc(OCC3CC3)c2)CC1 [123a, (S,E)-N-(1-(3-(cyclopropylmethoxy)phenyl)cyclopropyl)-5-(5-methyl-2,4-dioxoimidazolidin-1-yl)pent-3-ene-1-sulfonamide] | 105% |  |
| CC1(C)C(=O)NC(=O)N1CCCCCS(=O)(=O)NC1(c2ccc(F)c(OCC3CC3)c2)CC1 [119b, N-(1-(3-(cyclopropylmethoxy)-4-fluorophenyl)cyclopropyl)-5-(5,5-dimethyl-2,4-dioxoimidazolidin-1-yl)pentane-1-sulfonamide] | 23% |  |
| C[C@@H](NS(=O)(=O)CCCCCC1(C)NC(=O)NC1=O)c1ccc(F)c(OCC2CC2)c1 (stereo partly drawn) [127b, N—((R)-1-(3-(cyclopropylmethoxy)-4-fluorophenyl)ethyl)-5-(4-methyl-2,5-dioxoimidazolidin-4-yl) pentane-1-sulfonamide] | 71% |  |
| C[C@@H](NS(=O)(=O)CCCCCN1CC(=O)NC1=O)c1ccc(F)c(OC[C@@H]2CCCN2C)c1 [Example 91, 5-(2,4-dioxoimidazolidin-1-yl)-N—((R)-1-(4-fluoro-3-(((S)-1-methylpyrrolidin-2-yl)methoxy)phenyl)ethyl)pentane-1-sulfonamide] | 1% | 150000 nM |
| C[C@@H](NS(=O)(=O)CC/C=C/CN1C(=O)NC(=O)C1(C)C)c1ccc(F)c(OCC2CC2)c1 [Example 112, (R,E)-N-(1-(3-(cyclopropylmethoxy)-4-fluorophenyl)ethyl)-5-(5,5-dimethyl-2,4-dioxoimidazolidin-1-yl)pent-3-ene-1-sulfonamide] | 50% |  |
| C[C@@H](NS(=O)(=O)CCOCCN1CC(=O)NC1=O)c1cccc(OCC2CC2)c1 [Example 114, (R)—N-(1-(3-(cyclopropylmethoxy)phenyl)ethyl)-2-(2-(2,4-dioxoimidazolidin-1-yl)ethoxy)ethane-1-sulfonamide] | 124% |  |
| O=C1CN(CCCCCS(=O)(=O)NC2CCc3c2ccc(F)c3OCC2CC2)C(=O)N1 (stereo not shown) [Example 105, N-(4-(cyclopropylmethoxy)-5-fluoro-2,3-dihydro-1H-inden-1-yl)-5-(2,4-dioxoimidazolidin-1-yl) pentane-1-sulfonamide] | 36% |  |
| O=C1CN(COCCCS(=O)(=O)NC2(c3ccc(F)c(OCC4CC4)c3)CC2)C(=O)N1 [compound 120, N-(1-(3-(cyclopropylmethoxy)-4-fluorophenyl)cyclopropyl)-3-((2,4-dioxoimidazolidin-1-yl)methoxy)propane-1-sulfonamide] | 172% |  |
| C[C@@H](NS(=O)(=O)CCCCCN1CC(=O)NC1=O)c1ccc(F)c(OCC2COC2)c1 [Example 87, (R)-5-(2,4-dioxoimidazolidin-1-yl)-N-(1-(4-fluoro-3-(oxetane-3-ylmethoxy)phenyl)ethyl)pentane-1-sulfonamide] | 37% | 2000 nM |
| C[C@@H](NS(=O)(=O)CCCCCN1CC(=O)NC1=O)c1ccc(F)c(OC2CCOCC2)c1 [Example 98, (R)-5-(2,4-dioxoimidazolidin-1-yl)-N-(1-(4-fluoro-3-((tetrahydro-2H-pyran-4-yl)oxy)phenyl)ethyl)pentane-1-sulfonamide] | 25% | 3000 nM |
| C[C@@H](NS(=O)(=O)CCCCCN1CC(=O)NC1=O)c1ccc(F)c(OC2CCCC2)c1 [Example 86, (R)—N-(1-(3-(cyclopentyloxy)-4-fluorophenyl)ethyl)-5-(2,4-dioxoimidazolidine-1-yl)pentane-1-sulfonamide] | 187% |  |
| C[C@@H](NS(=O)(=O)CCCOCN1CC(=O)NC1=O)c1cccc(OC2CCCC2)c1 [Example 84, (R)—N-(1-(3-(cyclopentyloxy)phenyl)ethyl)-3-((2,4-dioxoimidazolidin-1-yl)methoxy)propane-1-sulfonamide] | 30% | 2500 nM |
| C[C@@H](NS(=O)(=O)CCCCCN1CC(=O)NC1=O)c1ccc(F)c(Oc2ccccc2)c1 [Example 99, (R)-5-(2,4-dioxoimidazolidin-1-yl)-N-(1-(4-fluoro-3-phenoxyphenyl)ethyl)pentane-1-sulfonamide] | 60% | 1250 nM |
| C[C@@H](NS(=O)(=O)CCCOCN1CC(=O)NC1=O)c1cccc(OCC2CC2)c1 [Example 115, (R)—N-(1-(3-(cyclopropylmethoxy)phenyl)ethyl)-3-((2,4-dioxoimidazolidin-1-yl)methoxy)propane-1-sulfonamide] | 164% |  |
| C[C@@H](NS(=O)(=O)CCCCCN1CC(=O)N(C(=O)OC(C)(C)C)C1=O)c1ccc(F)c(OCC2CC2)c1 [Example 93] | 20% | 3750 nM |
| CC(C)COc1cc([C@@H](C)NS(=O)(=O)CCC=CCN2C(=O)NC(=O)C2(C)C)ccc1F [Example 113, (R)-5-(5,5-dimethyl-2,4-dioxoimidazolidin-1-yl)-N-(1-(4-fluoro-3-isobutoxyphenyl)ethyl)pent-3-ene-1-sulfonamide] | 8% |  |
| C[C@H](c1ccc(F)c(OCC2CC2)c1)N(C)S(=O)(=O)CCCCCN1CC(=O)NC1=O [Example 92, (R)—N-(1-(3-(cyclopropylmethoxy)-4-fluorophenyl)ethyl)-5-(2,4-dioxoimidazolidin-1-yl)-N-methylpentane-1-sulfonamide] | 12% | 6250 nM |
| CC(Oc1cc([C@@H](C)NS(=O)(=O)CCCCCN2CC(=O)NC2=O)ccc1F)C1CC1 (stereo partly drawn) [Example 90, N—((1R)-1-(3-(1-cyclopropylethoxy)-4-fluorophenyl)ethyl)-5-(2,4-dioxoimidazolidin-1-yl)pentane-1-sulfonamide] | 37% | 2000 nM |
